Measurements taken from ChEMBL document CHEMBL5291721, “A preclinical secondary pharmacology resource illuminates target-adverse drug reaction associations of marketed drugs” (Nat Commun, 2023).

Columns and labels:
[1] = target: Sodium-dependent dopamine transporter (Homo sapiens, UniProt Q01959)
[2] = target: T1, Cholecystokinin receptor type A (Homo sapiens, UniProt P32238)
T1 sequence (P32238 whole entry): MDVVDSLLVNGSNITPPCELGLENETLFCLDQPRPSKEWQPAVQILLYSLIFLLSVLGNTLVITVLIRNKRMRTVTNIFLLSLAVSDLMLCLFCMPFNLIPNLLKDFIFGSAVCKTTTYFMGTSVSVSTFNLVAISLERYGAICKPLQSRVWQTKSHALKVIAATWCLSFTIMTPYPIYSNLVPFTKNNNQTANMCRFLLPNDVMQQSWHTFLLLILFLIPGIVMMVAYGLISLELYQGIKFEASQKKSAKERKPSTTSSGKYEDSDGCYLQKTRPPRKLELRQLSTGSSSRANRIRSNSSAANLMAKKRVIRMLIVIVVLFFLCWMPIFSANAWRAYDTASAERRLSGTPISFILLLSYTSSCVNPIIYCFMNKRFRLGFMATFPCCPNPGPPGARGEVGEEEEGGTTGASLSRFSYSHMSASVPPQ

Vasopressin V1a receptor = Vasopressin V1a receptor (Homo sapiens, UniProt P37288)
[3] = target: T2, Amine oxidase [flavin-containing] A (Homo sapiens, UniProt P21397); type: functional
T2 sequence (P21397 whole entry): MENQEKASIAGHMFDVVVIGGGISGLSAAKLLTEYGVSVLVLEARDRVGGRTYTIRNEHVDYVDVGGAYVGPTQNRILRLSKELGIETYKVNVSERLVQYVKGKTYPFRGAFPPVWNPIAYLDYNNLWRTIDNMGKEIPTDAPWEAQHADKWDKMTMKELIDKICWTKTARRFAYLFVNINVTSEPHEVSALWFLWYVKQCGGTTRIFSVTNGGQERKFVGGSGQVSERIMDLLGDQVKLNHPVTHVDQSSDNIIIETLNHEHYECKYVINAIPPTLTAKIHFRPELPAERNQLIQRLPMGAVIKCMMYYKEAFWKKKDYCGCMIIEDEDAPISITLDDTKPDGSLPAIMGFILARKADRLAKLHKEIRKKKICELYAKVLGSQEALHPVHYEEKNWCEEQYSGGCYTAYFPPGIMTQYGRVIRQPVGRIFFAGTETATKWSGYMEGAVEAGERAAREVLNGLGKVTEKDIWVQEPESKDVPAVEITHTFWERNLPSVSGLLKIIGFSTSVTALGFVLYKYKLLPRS

[4] = target: Beta-2 adrenergic receptor (Homo sapiens, UniProt P07550); type: functional, cell-based
[5] = target: T3, Alpha-2A adrenergic receptor (Homo sapiens, UniProt P08913); type: functional, cell-based
T3 sequence (P08913 whole entry): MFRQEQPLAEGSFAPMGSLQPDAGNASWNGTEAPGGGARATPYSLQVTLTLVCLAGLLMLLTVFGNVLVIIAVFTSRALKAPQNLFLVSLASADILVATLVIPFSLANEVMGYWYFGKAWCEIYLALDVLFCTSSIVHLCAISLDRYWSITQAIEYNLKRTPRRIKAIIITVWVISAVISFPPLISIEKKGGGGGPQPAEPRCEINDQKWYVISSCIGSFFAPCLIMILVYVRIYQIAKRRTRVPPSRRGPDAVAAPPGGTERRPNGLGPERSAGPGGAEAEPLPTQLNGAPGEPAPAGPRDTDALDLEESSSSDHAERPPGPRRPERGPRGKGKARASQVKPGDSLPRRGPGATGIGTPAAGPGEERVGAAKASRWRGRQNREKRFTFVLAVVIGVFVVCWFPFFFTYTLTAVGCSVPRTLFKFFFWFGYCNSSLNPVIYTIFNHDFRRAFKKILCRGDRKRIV

[6] = target: Beta-1 adrenergic receptor (Homo sapiens, UniProt P08588); type: functional
[7] = target: 5-hydroxytryptamine receptor 2A (Homo sapiens, UniProt P28223); type: functional, cell-based
[8] = target: 3',5'-cyclic-AMP phosphodiesterase 4D (Homo sapiens, UniProt Q08499); type: functional
Melanocortin receptor 3 = Melanocortin receptor 3 (Homo sapiens, UniProt P41968)
[9] = target: Glutamate receptor ionotropic, NMDA 1 (Rattus norvegicus, UniProt P35439)
Progesterone receptor = target: T4, Progesterone receptor (Homo sapiens, UniProt P06401)
T4 sequence (P06401 whole entry): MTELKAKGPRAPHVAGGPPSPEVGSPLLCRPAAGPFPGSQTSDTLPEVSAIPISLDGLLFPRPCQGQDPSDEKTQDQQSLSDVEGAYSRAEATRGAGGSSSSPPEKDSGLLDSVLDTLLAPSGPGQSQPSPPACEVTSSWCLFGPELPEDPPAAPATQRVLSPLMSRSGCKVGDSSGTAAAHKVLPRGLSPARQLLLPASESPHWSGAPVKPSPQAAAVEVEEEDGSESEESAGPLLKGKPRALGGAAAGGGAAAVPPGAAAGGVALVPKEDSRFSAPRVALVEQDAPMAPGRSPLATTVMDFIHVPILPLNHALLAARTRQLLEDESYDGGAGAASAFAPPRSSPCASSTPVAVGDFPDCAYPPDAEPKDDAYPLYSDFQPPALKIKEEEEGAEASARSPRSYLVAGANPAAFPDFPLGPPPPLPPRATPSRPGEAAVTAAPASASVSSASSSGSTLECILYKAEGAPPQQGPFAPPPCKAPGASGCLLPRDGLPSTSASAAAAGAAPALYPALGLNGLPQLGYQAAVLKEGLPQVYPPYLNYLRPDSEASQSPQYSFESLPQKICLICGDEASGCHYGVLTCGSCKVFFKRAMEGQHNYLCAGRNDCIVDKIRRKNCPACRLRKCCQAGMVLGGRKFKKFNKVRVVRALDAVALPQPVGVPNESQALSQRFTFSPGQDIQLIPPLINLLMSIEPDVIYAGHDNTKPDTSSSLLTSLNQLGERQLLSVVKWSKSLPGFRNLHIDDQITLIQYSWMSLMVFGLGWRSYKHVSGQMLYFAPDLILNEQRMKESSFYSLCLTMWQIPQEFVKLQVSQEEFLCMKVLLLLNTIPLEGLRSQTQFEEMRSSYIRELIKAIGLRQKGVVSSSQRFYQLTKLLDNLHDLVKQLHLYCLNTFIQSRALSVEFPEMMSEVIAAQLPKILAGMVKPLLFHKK

D(1A) dopamine receptor = D(1A) dopamine receptor (Homo sapiens, UniProt P21728)
Also: assay procedure not described here.

Sodium-dependent dopamine transporter, sequence (Q01959 whole entry): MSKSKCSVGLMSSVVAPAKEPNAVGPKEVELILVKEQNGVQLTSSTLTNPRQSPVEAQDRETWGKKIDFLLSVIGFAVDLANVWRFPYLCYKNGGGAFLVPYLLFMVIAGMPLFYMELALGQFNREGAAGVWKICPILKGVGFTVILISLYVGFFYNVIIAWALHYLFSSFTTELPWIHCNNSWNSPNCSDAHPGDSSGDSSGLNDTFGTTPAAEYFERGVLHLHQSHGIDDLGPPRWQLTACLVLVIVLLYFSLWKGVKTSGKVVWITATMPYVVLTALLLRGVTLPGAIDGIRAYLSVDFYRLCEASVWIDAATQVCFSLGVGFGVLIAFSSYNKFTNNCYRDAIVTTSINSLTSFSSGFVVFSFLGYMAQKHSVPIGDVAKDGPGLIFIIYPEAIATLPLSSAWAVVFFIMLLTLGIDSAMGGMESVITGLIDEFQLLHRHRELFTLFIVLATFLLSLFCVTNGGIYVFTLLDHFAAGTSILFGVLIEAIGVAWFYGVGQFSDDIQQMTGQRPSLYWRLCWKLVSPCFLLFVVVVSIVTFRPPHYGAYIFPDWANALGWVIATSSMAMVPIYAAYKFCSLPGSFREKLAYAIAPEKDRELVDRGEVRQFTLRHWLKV
5-hydroxytryptamine receptor 2A, sequence (P28223 whole entry): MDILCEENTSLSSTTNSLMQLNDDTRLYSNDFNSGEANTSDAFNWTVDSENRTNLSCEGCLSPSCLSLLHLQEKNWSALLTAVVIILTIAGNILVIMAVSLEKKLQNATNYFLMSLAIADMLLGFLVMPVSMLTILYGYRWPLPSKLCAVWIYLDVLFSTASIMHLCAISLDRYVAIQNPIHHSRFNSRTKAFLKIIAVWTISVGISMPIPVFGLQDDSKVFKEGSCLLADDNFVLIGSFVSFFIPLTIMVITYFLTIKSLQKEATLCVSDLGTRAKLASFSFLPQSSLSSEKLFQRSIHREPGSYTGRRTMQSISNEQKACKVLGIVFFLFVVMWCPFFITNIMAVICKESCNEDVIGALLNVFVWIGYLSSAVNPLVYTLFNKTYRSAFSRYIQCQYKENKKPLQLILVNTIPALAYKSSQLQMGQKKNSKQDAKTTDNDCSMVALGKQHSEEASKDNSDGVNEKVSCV
Melanocortin receptor 3, sequence (P41968 whole entry): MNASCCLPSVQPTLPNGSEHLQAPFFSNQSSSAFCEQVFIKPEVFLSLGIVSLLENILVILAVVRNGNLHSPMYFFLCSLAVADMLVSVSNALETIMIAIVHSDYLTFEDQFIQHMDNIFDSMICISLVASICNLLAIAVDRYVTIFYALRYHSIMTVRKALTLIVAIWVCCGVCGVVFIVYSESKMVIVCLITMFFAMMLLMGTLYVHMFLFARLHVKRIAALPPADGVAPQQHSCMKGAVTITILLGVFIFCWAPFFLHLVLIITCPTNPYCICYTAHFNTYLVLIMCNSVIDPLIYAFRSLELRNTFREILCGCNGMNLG
Beta-1 adrenergic receptor, sequence (P08588 whole entry): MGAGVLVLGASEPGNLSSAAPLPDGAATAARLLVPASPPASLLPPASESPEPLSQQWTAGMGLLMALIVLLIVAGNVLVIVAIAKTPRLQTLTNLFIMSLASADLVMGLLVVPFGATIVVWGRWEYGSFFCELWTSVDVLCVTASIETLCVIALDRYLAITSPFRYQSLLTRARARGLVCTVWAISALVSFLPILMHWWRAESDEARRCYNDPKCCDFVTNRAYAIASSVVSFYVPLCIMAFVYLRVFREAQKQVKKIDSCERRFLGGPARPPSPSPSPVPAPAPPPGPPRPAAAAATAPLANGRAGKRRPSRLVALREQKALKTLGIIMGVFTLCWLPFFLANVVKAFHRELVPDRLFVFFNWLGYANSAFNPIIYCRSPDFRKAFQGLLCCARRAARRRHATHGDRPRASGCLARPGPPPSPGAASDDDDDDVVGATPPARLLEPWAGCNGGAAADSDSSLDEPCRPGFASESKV
Vasopressin V1a receptor, sequence (P37288 whole entry): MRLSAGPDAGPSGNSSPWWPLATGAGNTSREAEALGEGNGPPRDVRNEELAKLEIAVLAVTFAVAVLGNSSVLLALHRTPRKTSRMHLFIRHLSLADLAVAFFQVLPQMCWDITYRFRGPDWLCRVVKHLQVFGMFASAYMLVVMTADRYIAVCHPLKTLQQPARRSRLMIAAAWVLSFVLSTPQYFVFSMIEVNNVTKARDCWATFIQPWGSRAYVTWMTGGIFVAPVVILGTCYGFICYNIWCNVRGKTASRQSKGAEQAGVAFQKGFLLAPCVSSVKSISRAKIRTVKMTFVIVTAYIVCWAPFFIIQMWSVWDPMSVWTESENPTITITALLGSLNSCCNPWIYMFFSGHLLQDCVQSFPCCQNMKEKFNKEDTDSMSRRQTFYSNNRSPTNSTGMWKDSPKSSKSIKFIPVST
3',5'-cyclic-AMP phosphodiesterase 4D, sequence (Q08499 whole entry): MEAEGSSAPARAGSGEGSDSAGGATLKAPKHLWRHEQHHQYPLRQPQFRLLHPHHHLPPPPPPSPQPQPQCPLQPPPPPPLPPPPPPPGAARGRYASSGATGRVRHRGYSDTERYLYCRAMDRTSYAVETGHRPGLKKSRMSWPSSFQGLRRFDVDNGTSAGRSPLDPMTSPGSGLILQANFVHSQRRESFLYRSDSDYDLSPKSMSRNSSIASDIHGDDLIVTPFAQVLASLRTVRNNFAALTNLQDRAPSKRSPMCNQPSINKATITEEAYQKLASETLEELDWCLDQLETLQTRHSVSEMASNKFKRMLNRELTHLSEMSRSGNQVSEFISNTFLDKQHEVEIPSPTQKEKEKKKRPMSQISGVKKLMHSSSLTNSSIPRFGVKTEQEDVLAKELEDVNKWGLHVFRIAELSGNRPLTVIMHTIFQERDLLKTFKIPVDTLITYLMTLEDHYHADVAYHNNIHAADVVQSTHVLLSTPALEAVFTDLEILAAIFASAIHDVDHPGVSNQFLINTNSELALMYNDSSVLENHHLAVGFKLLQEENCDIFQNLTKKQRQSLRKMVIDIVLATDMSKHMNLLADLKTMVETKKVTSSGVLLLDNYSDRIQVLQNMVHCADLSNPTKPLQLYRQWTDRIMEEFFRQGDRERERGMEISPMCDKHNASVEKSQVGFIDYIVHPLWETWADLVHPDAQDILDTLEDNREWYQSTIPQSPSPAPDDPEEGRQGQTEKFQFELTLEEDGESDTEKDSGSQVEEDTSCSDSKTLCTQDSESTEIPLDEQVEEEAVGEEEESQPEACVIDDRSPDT
Beta-2 adrenergic receptor, sequence (P07550 whole entry): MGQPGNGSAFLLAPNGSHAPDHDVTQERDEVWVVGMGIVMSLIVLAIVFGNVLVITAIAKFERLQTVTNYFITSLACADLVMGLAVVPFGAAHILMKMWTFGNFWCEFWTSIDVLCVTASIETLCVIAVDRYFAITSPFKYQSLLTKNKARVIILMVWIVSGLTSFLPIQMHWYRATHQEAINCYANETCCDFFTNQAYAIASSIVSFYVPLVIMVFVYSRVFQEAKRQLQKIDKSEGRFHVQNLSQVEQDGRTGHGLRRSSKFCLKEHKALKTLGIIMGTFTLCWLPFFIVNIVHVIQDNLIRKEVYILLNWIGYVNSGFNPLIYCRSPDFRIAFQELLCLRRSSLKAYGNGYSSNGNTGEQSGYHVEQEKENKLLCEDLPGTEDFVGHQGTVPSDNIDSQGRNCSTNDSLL
D(1A) dopamine receptor, sequence (P21728 whole entry): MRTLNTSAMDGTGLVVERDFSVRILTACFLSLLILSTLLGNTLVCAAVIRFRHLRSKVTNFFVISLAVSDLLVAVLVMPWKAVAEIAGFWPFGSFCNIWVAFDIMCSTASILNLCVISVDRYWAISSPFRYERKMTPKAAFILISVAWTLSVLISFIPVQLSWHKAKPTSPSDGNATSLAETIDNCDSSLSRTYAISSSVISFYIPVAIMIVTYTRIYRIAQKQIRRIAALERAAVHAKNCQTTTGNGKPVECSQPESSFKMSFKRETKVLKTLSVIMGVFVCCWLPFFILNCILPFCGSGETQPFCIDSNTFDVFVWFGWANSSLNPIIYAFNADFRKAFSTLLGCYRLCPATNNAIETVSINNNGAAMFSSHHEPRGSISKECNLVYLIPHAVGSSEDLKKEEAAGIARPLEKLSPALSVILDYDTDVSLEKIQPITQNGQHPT

SMILES | AC50 [1] | AC50 [2] | AC50 (Vasopressin V1a receptor) | AC50 [3] | AC50 [4] | AC50 [5] | AC50 [6] | AC50 [7] | AC50 [8] | AC50 (Melanocortin receptor 3) | AC50 [9] | AC50 (Progesterone receptor) | AC50 (D(1A) dopamine receptor)
CN1CC2c3ccccc3Oc3ccc(Cl)cc3C2C1 (stereo not given) [ASENAPINE] | 11 µM | > 30 µM | > 30 µM | > 30 µM | > 30 µM | > 30 µM | > 30 µM | 0.0002 µM | > 30 µM | > 30 µM | – | – | –
CCN(CC)CCn1c(=O)c(Cc2ccc(OC)cc2)nc2ccccc21 [CAROVERINE] | > 30 µM | > 30 µM | > 30 µM | > 30 µM | > 30 µM | > 30 µM | > 30 µM | 9.7 µM | 7.11 µM | > 30 µM | > 30 µM | – | –
CCOCC(O)COc1ccc(NC(=O)CC[S+](C)C)cc1 (stereo not given) | > 30 µM | > 30 µM | > 30 µM | > 30 µM | > 30 µM | > 30 µM | > 30 µM | > 30 µM | > 30 µM | > 30 µM | – | – | –
O=C(O)[C@H]1/C(=C/CO)O[C@@H]2CC(=O)N21 [CLAVULANIC ACID] | > 30 µM | > 30 µM | > 30 µM | > 30 µM | > 30 µM | > 30 µM | > 30 µM | > 30 µM | > 30 µM | > 30 µM | – | – | –
CCC[C@@]1(CCc2ccccc2)CC(O)=C([C@H](CC)c2cccc(NS(=O)(=O)c3ccc(C(F)(F)F)cn3)c2)C(=O)O1 | 27 µM | 27 µM | > 30 µM | > 30 µM | > 30 µM | > 30 µM | > 30 µM | 11 µM | 29 µM | > 30 µM | – | – | –
CC(C)(CO)c1cc2cc(NC(=O)C3(c4ccc5c(c4)OC(F)(F)O5)CC3)c(F)cc2n1C[C@@H](O)CO [TEZACAFTOR] | > 30 µM | > 30 µM | > 30 µM | > 30 µM | > 30 µM | > 30 µM | > 30 µM | 16 µM | 8.7 µM | > 30 µM | – | – | –
CN(C)CCOC(c1ccc(Cl)cc1)c1ccccn1 (stereo not given) [CARBINOXAMINE] | 5.2 µM | > 30 µM | > 30 µM | > 30 µM | > 30 µM | > 30 µM | – | > 30 µM | > 30 µM | > 30 µM | > 30 µM | – | –
CCOC(=O)[C@H](CCc1ccccc1)N[C@@H](C)C(=O)N1Cc2ccccc2C[C@H]1C(=O)O | > 10 µM | > 30 µM | > 10 µM | > 10 µM | > 30 µM | > 10 µM | > 10 µM | – | > 10 µM | > 30 µM | > 10 µM | > 30 µM | > 30 µM
c1cnc2cc3c(cc2n1)[C@@H]1CNC[C@H]3C1 [VARENICLINE] | > 30 µM | > 30 µM | > 30 µM | > 30 µM | > 30 µM | > 30 µM | > 30 µM | > 30 µM | > 30 µM | > 30 µM | – | – | –
Cn1cnc2c(F)c(Nc3ccc(Br)cc3F)c(C(=O)NOCCO)cc21 [BINIMETINIB] | > 30 µM | > 30 µM | > 30 µM | > 30 µM | > 30 µM | > 30 µM | > 30 µM | > 30 µM | > 30 µM | > 30 µM | – | – | –
Nc1c2c(nc3ccccc13)CCCC2O (stereo not given) [VELNACRINE] | > 30 µM | > 30 µM | > 30 µM | > 30 µM | > 30 µM | > 30 µM | > 30 µM | > 30 µM | > 30 µM | > 30 µM | – | – | –
C[C@H](CCC(=O)O)[C@H]1CC[C@H]2[C@@H]3[C@H](O)C[C@@H]4C[C@H](O)CC[C@]4(C)[C@H]3CC[C@]12C [CHENODIOL] | > 30 µM | > 30 µM | > 30 µM | > 30 µM | > 30 µM | > 30 µM | > 30 µM | > 30 µM | > 30 µM | > 30 µM | – | – | –
COc1cc2c(cc1OC)C1CC(=O)C(CC(C)C)CN1CC2 (stereo not given) [TETRABENAZINE] | > 30 µM | > 30 µM | > 30 µM | > 30 µM | > 30 µM | > 30 µM | > 30 µM | > 30 µM | > 30 µM | > 30 µM | – | – | –
NCC1(CC(=O)O)CCCCC1 [GABAPENTIN] | > 30 µM | > 30 µM | > 30 µM | > 30 µM | > 30 µM | > 30 µM | > 30 µM | – | > 30 µM | > 30 µM | > 10 µM | > 30 µM | > 30 µM
C[C@@H](O)[C@H]1C(=O)N2C(C(=O)O)=C(SCCN=CN)C[C@H]12 [IMIPENEM ANHYDROUS] | > 300 µM | > 300 µM | > 300 µM | > 300 µM | > 300 µM | > 300 µM | > 300 µM | > 300 µM | > 300 µM | > 300 µM | – | – | –
CO[C@@H]1[C@@H](OC(N)=O)[C@@H](O)[C@H](Oc2ccc3c(O)c(NC(=O)c4ccc(O)c(CC=C(C)C)c4)c(=O)oc3c2C)OC1(C)C [NOVOBIOCIN] | > 30 µM | > 30 µM | > 30 µM | > 30 µM | > 30 µM | > 30 µM | > 30 µM | > 30 µM | > 30 µM | > 30 µM | – | – | –
